For orientation: pEC50 means the negative decadic logarithm of the EC50, by convention in mol/L.

pEC50: −log10 of the molar value. Calls of active or inactive are those of the source. No cut-off for these calls is given here.

Data set [1] in a line: Plasma concentration in Lewis rat at 1 mg/kg, po measured at 4 hrs. It counts as ADME, organism-based.
Data set [2] deals with Rattus norvegicus. Kind of data set: Reduction of blood lymphocyte level in Lewis rat at 1 mg/kg, po measured at 4 hrs by hematology analyzer relative to vehicle-treated control. The format is functional. On the set-up: scale not given: the % may be the effect or the level left.
The target in data set [3] is Sphingosine 1-phosphate receptor 3 (Homo sapiens, UniProt Q99500). Put plainly: Agonist activity at human S1P3 receptor expressed in EDG3-Ga15-bla HEK293T cell membranes after 45 mins by [35S]-GTPgammaS binding assay. The format is functional, HEK-293T. (In general: Binding of GTPγS marks nucleotide exchange on a G protein.)
Chain of Sphingosine 1-phosphate receptor 3 (Q99500 whole entry): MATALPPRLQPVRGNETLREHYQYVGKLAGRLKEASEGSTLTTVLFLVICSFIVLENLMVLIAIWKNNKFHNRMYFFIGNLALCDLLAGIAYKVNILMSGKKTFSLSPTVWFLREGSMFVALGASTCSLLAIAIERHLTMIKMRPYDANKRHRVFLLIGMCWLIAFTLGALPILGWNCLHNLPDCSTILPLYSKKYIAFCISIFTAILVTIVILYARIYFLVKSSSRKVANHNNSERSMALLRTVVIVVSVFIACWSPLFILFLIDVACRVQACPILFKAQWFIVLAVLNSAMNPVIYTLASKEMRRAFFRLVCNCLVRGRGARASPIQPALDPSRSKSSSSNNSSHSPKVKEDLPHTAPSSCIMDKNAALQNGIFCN
Data set [4] concerns the target Sphingosine 1-phosphate receptor 1 (Homo sapiens, UniProt P21453). Put plainly: Agonist activity at human S1P1 receptor expressed in CHO cell membranes after 45 mins by [35S]-GTPgammaS binding assay. It counts as functional.
The next data set is filed under the species Homo sapiens. Put plainly: Selectivity ratio of EC50 for human S1P3 receptor to EC50 for human S1P1 receptor.
Data set [5] concerns Rattus norvegicus. Put plainly: Reduction of blood lymphocyte level in Lewis rat at 1 mg/kg, po measured at 24 hrs by hematology analyzer relative to vehicle-treated control. Also on record: scale not given: the % may be the effect or the level left. The format is functional.
The subject of a further data set is Plasma. Put plainly: Ratio drug level in Lewis rat plasma at 1 mg/kg, po at 4 hrs to drug level in Lewis rat plasma at 1 mg/kg, po at 24 hrs. It counts as ADME, organism-based. The note with it: in vivo.
Data set [6] can be described thus: Plasma concentration in Lewis rat at 1 mg/kg, po measured at 24 hrs. It counts as ADME, organism-based.
The next data set relates to Mus musculus. Put plainly: Reduction in clinical score in C57BL/6 mouse experimental autoimmune encephalomyelitis model of multiple sclerosis at 1 mg/kg, po qd for 24 days started from day of immunization measured 3 times per week of compound dosing. It counts as functional, organism-based.

Chain of Sphingosine 1-phosphate receptor 1 (P21453 whole entry): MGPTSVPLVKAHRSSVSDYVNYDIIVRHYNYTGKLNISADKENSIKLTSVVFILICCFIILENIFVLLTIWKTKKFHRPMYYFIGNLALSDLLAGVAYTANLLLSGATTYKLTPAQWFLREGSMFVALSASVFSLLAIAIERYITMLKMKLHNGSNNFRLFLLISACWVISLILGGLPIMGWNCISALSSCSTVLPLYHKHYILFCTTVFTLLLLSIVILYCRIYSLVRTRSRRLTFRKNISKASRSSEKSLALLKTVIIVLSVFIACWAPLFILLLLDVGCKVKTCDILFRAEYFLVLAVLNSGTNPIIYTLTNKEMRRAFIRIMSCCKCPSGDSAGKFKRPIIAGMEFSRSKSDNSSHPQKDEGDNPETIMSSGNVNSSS

Regarding `CCc1c(-c2nc(-c3ccc(CN4CC(C(=O)O)C4)cc3)no2)noc1-c1ccccc1`, the concentration at 4 h in [1] worked out at 320 nM. The Activity in the data set with Rattus norvegicus [2] is listed as 76%; in the data set on Rattus norvegicus [5], 52%. In addition, the pEC50 in data set [3] is 4.92; in [4], 8.80. Also, the Ratio EC50 in the data set listed under Homo sapiens is 7500. Further, in the data set with Plasma, the Ratio was 11. The molecule further showed a concentration at 24 h in [6] of 29 nM.

`CC(C)(C)c1c(-c2nc(-c3ccc(CN4CC(C(=O)O)C4)cc3)no2)noc1-c1ccccc1` returned a concentration at 4 h in data set [1] of 520 nM. The Activity with Rattus norvegicus [2] amounted to 73%; in the data set with Rattus norvegicus [5], 52%. Also, the figures for the pEC50 in data set [3] and in data set [4] were 5.59 and 8.28, respectively. Also, the Ratio EC50 in the data set listed under Homo sapiens was found to be 500. Moreover, the Ratio with Plasma was found to be 9. This molecule returned a concentration at 24 h in data set [6] of 55 nM.

Consider `CC(C)Cc1c(-c2nc(-c3ccc(CN4CC(C(=O)O)C4)cc3)no2)noc1-c1ccccc1`, for which the concentration at 4 h in [1] is 190 nM. In addition, the Activity with Rattus norvegicus [2] was 80%; with Rattus norvegicus [5], 82%. Besides, the pEC50 in data set [3] is 6.14; in data set [4], 9.25. For the same molecule, the Ratio EC50 in the data set listed under Homo sapiens turned out to be 1300. For the same molecule, in the data set on Plasma, the Ratio turned out to be 6. Further, in data set [6], the concentration at 24 h stood at 30 nM.

Consider `O=C(O)C1CN(Cc2ccc(-c3noc(-c4noc(-c5ccccc5)c4-c4ccccc4)n3)cc2)C1`, for which the pEC50 in [3] is 6.89; in data set [4] it was 9.00. Besides, the Ratio EC50 in the data set filed under Homo sapiens came to 130.

`O=C(O)C1CN(Cc2ccc(-c3noc(-c4noc(-c5ccccc5)c4C(F)(F)F)n3)cc2)C1` yielded a concentration at 4 h in data set [1] of 1100 nM. Also, the figures for the Activity in the data set with Rattus norvegicus [2] and in the data set with Rattus norvegicus [5] were 84% and 85%, respectively. The pEC50 in [3] was 5.39; in data set [4] it was 9.01. Besides, the Ratio EC50 in the data set filed under Homo sapiens is 4100. For the same molecule, the Ratio with Plasma turned out to be 6. Besides, the concentration at 24 h in data set [6] stood at 180 nM.

In data set [1], `CCCc1c(-c2nc(-c3ccc(CN4CC(C(=O)O)C4)cc3)no2)noc1-c1ccccc1` registered a concentration at 4 h of 250 nM. For the same molecule, the Activity is 85% in the data set on Rattus norvegicus [2] and 60% in the data set with Rattus norvegicus [5]. The pEC50 is 5.89 in [3] and 9.36 in data set [4]. Further, in the data set filed under Homo sapiens, the Ratio EC50 came out at 2900. In the data set on Plasma, the Ratio is reported as 31. For the same molecule, the concentration at 24 h in [6] is 7.9 nM.

As to `O=C(O)C1CN(Cc2ccc(-c3noc(-c4noc(-c5ccccc5)c4C4CC4)n3)cc2)C1`, the results for the pEC50 in data set [3] and in data set [4] were 5.74 and 8.49, respectively. Also, the Ratio EC50 in the data set filed under Homo sapiens was found to be 540.

For `O=C(O)C1CN(Cc2ccc(-c3noc(-c4cc(-c5ccccc5)on4)n3)cc2)C1`, the concentration at 4 h in data set [1] is 140 nM. Further, the figures for the Activity in the data set with Rattus norvegicus [2] and in the data set with Rattus norvegicus [5] were 22% and 0%, respectively. Also, the pEC50 in data set [3] is 5.20; in data set [4], 7.36. The Ratio EC50 in the data set listed under Homo sapiens amounted to 150.

For `CC(C)c1c(-c2nc(-c3ccc(CN4CC(C(=O)O)C4)cc3)no2)noc1-c1ccccc1`, the pEC50 in data set [3] was 5.29; in data set [4] it was 8.89. In addition, the Ratio EC50 in the data set listed under Homo sapiens was found to be 4000.

`CCCCCCCCc1ccc(CCC(N)(CO)CO)cc1`: the outcome in the data set with Mus musculus was Active.

Consider `CC(C)Cc1onc(-c2nc(-c3ccc(CN4CC(C(=O)O)C4)cc3)no2)c1C(F)(F)F`, for which the concentration at 4 h in [1] amounted to 1600 nM. The Activity in the data set with Rattus norvegicus [2] stood at 88%; with Rattus norvegicus [5] it was 83%. Also, the values for the pEC50 in data set [3] and in [4] were 5.21 and 9.41, respectively. The Ratio EC50 in the data set filed under Homo sapiens came out at 16000. The Ratio with Plasma was 6. This molecule displayed a concentration at 24 h in data set [6] of 280 nM.

As for `CC(F)(F)c1c(-c2nc(-c3ccc(CN4CC(C(=O)O)C4)cc3)no2)noc1-c1ccccc1`, in [1], the concentration at 4 h was determined as 1400 nM. Besides, the Activity with Rattus norvegicus [2] came out at 81%; with Rattus norvegicus [5], 82%. Also, the pEC50 was 5.72 in data set [3] and 9.27 in [4]. For the same molecule, the Ratio EC50 in the data set filed under Homo sapiens came out at 3500. The Ratio in the data set on Plasma turned out to be 14. In [6], the concentration at 24 h was 100 nM.

With `Cc1c(-c2nc(-c3ccc(CN4CC(C(=O)O)C4)cc3)no2)noc1-c1ccccc1`, the concentration at 4 h in data set [1] amounted to 260 nM. Moreover, the Activity with Rattus norvegicus [2] worked out at 68%; in the data set with Rattus norvegicus [5], 0%. In addition, the pEC50 was < 7.51 in data set [3] and 8.30 in data set [4]. The Ratio EC50 in the data set filed under Homo sapiens was > 6300. For the same molecule, in the data set with Plasma, the Ratio amounted to 41. The same molecule gave a concentration at 24 h in data set [6] of 6.4 nM.

For the molecule `CCCc1c(-c2nc(-c3ccc(CN4CC(C(=O)O)C4)cc3)no2)noc1CC(C)C`, in [1], the concentration at 4 h was determined as 1300 nM. Also, the Activity in the data set with Rattus norvegicus [2] came to 86%; with Rattus norvegicus [5], 78%. Also, the pEC50 in data set [3] is 6.07; in data set [4], 9.52. The Ratio EC50 in the data set filed under Homo sapiens turned out to be 2900. For the same molecule, in the data set with Plasma, the Ratio came out at 33. For the same molecule, the concentration at 24 h in data set [6] is 41 nM.

On to `CCCc1c(-c2ccccc2)noc1-c1nc(-c2ccc(CN3CC(C(=O)O)C3)cc2)no1`, for which the concentration at 4 h in [1] was 170 nM. The Activity was determined as 85% with Rattus norvegicus [2] and 82% in the data set on Rattus norvegicus [5]. Besides, the pEC50 in data set [3] is 6.00; in [4] it was 9.36. Further, the Ratio EC50 in the data set listed under Homo sapiens is 2300. Besides, the Ratio in the data set with Plasma turned out to be 15. For the same molecule, the concentration at 24 h in [6] stood at 11 nM.

The molecule `CCCCc1c(-c2nc(-c3ccc(CN4CC(C(=O)O)C4)cc3)no2)noc1-c1ccccc1` had a concentration at 4 h in data set [1] of 81 nM. The Activity in the data set with Rattus norvegicus [2] amounted to 82%; with Rattus norvegicus [5] it was 60%. For the same molecule, the Ratio in the data set on Plasma was 16. The molecule also displayed a concentration at 24 h in data set [6] of 5 nM.

For `Cc1c(-c2ccccc2)noc1-c1nc(-c2ccc(CN3CC(C(=O)O)C3)cc2)no1`, the pEC50 is 5.04 in data set [3] and 8.77 in [4]. Also, the Ratio EC50 in the data set listed under Homo sapiens turned out to be 5500.

As for `O=C(O)C1CN(Cc2ccc(-c3noc(-c4cc(-c5ccccc5)no4)n3)cc2)C1`, the pEC50 in data set [4] is 7.60.

Source of the values: ChEMBL document CHEMBL3797106, “Potent and Selective Agonists of Sphingosine 1-Phosphate 1 (S1P1): Discovery and SAR of a Novel Isoxazole Based Series” (J Med Chem, 2016).
